Earlier results, collected in patent US12630801B2, “Stem cell-derived Schwann cells” (MEMORIAL SLOAN-KETTERING CANCER CENTER, priority 2016, dated 2026).

Key:
Settings in all cases: Yu et al. 2008; Cuny et al. 2008
ALK3 = ALK3 (Homo sapiens, UniProt P36894)
ALK6 = ALK6 (Homo sapiens, UniProt O00238)
ALK2 = target: T1, ALK2 (Homo sapiens, UniProt Q04771)
T1 sequence (Q04771 21-509): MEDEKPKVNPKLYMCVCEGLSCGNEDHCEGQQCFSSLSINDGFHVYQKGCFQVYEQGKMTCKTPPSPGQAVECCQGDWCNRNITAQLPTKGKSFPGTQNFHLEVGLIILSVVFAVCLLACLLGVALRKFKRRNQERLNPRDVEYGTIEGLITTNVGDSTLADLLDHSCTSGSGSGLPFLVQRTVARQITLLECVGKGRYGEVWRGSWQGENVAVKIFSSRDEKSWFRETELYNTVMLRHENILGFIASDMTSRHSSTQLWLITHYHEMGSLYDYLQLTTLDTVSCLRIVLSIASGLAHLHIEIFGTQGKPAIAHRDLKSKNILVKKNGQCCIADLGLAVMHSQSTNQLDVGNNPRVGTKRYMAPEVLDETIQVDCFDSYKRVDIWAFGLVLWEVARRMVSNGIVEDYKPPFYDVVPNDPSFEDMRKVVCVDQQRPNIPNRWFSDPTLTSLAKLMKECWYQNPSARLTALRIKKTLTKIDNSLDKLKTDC

Sequence of ALK3 (P36894 24-532, species assumed): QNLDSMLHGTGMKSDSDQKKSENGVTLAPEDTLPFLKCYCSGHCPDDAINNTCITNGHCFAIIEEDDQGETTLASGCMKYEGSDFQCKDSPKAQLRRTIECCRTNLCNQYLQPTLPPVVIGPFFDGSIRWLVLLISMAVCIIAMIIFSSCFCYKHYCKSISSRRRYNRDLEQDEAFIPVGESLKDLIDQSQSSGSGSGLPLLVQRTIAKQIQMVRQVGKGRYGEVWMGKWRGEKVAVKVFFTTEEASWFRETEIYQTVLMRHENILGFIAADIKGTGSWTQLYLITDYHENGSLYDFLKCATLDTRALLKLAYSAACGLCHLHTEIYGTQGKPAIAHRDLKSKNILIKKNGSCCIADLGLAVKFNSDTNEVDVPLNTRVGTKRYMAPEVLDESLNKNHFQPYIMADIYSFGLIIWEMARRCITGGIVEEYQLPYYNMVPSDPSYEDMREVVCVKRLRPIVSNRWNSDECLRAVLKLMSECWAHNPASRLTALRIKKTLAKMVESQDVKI
Sequence of ALK6 (O00238 14-502): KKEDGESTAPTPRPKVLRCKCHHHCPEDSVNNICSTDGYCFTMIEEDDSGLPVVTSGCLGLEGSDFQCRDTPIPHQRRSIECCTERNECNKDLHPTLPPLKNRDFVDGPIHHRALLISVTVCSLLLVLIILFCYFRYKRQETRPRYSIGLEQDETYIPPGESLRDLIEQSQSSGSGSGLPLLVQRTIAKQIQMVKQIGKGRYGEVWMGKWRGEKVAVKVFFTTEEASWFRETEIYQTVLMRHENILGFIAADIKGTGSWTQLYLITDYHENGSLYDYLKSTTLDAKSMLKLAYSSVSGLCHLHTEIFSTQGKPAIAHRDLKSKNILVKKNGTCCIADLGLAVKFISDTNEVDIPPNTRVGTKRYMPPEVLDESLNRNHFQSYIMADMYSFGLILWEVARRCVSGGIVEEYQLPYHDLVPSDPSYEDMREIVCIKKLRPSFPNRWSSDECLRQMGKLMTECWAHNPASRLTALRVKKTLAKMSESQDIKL

c1ccc2c(-c3cnn4cc(-c5ccc(N6CCNCC6)cc5)cnc34)ccnc2c1 [LDN193189, 4-(6-(4-(piperazin-1-yl)phenyl)pyrazolo[1,5-a]pyrimidin-3-yl)quinoline]
highly potent small-molecule inhibitor: inhibition of ALK3 (ALK3) | inhibition of ALK6 (ALK6) | inhibition of ALK2 (ALK2)
